One may read the MIC as the lowest concentration that inhibits growth of the organism.

Where two headings read alike, the source gives them in different places. A value given as a limit tells only on which side of the number the result lay.

Some test systems named below: E. faecium; E. faecalis; S. aureus; E. coli; E. cloacae; K. pneumoniae; S. marcescens; S. maltophilia; P. aeruginosa; A. calcoaceticus.
Common to all, as to format: cell-based
A further assay relates to S. epidermidis. The conditions noted are these: S. epidermidis SE010.
Assay [1] deals with microorganisms with acquired resistance. As to the kind of experiment: microbe, parasite or virus in culture. The conditions noted are these: for Peptide MIC Alone: Ceftriaxone section; for FIC: peptide + Ceftriaxone.
The test system of the next assay is bacterial isolates. The assay can be described thus: microbe, parasite or virus in culture. The conditions noted are these: for Peptide MIC Alone: 2. Ceftriaxone; for FIC: peptide + Ceftriaxone.
Assay [2] relates to inherently resistant microorganisms. As to the kind of experiment: microbe, parasite or virus in culture. The conditions noted are these: P. aeruginosa.

In the case of ILKKNPNNPNRRK [MBI 11M8], the MIC against E. faecium (E. faecium EFM002), against E. faecalis (E. faecalis EFS002) and against S. aureus (S. aureus SA008) was 32 µg/mL in each case.

For ILKKPWWPWRRK [MBI 11G3CN], the MIC in the assay with E. coli (E. coli strain ECO003) is 64 µg/mL; with E. cloacae (E. cloacae strain ECL007) it was more than 128 µg/mL; against K. pneumoniae (K. pneumoniae strain KP001) it was more than 128 µg/mL; against E. faecium (E. faecium strain EFM002) it was 32 µg/mL; in the assay on S. marcescens (S. marcescens strain SMS004), more than 128 µg/mL; against E. faecalis (E. faecalis strain EFS002), 64 µg/mL. Besides, the MIC against S. aureus (S. aureus strain SA009) is 8 µg/mL; in the assay on S. maltophilia (S. maltophilia strain SMA001), more than 128 µg/mL; in the assay on P. aeruginosa (P. aeruginosa strain PA003), more than 128 µg/mL.

With ILKKWPWWPWRPMILKKAGS [MBI 11D5CN], the minimum inhibitory concentration (MIC) against E. coli (E. coli strain ECO003) is 64 µg/mL; with E. cloacae (E. cloacae strain ECL007) it was more than 64 µg/mL; against K. pneumoniae (K. pneumoniae strain KP001), more than 64 µg/mL; against E. faecium (E. faecium strain EFM003), 1 µg/mL; in the assay on S. marcescens (S. marcescens strain SMS004), more than 64 µg/mL; against E. faecalis (E. faecalis strain EFS002), 16 µg/mL. Besides, the MIC in the assay on A. calcoaceticus (A. calcoaceticus strain AC001) was more than 64 µg/mL; against S. aureus (S. aureus strain SA005) it was 8 µg/mL; in the assay on S. maltophilia (S. maltophilia strain SMA001), 64 µg/mL; in the assay on P. aeruginosa (P. aeruginosa strain PA003), more than 64 µg/mL.

For the sequence ILKKWPWWPWRRK [MBI 11E1CN], the minimum inhibitory concentration (MIC) against E. coli (E. coli strain ECO003) is 8 µg/mL; against E. cloacae (E. cloacae strain ECL007), more than 128 µg/mL; against K. pneumoniae (K. pneumoniae strain KP002), 39 µg/mL; in the assay on E. faecium (E. faecium strain EFM001), 8 µg/mL; in the assay with S. marcescens (S. marcescens strain SMS003), more than 128 µg/mL; against E. faecalis (E. faecalis strain EFS002), 8 µg/mL. Moreover, the minimum inhibitory concentration (MIC) is 32 µg/mL in the assay on A. calcoaceticus (A. calcoaceticus strain AC001), 1 µg/mL in the assay on S. aureus (S. aureus strain SA006), 64 µg/mL in the assay on S. maltophilia (S. maltophilia strain SMA001) and 128 µg/mL in the assay on P. aeruginosa (P. aeruginosa strain PA003).

For ILKKWPWWPWRRK [MBI 11], the MIC against E. coli (E. coli ECO002) was 64 µg/mL; against E. cloacae (E. cloacae ECL007), more than 128 µg/mL; against K. pneumoniae (K. pneumoniae KP001), 128 µg/mL; against E. faecium (E. faecium EFM003) it was 4 µg/mL; with S. marcescens (S. marcescens SMS004) it was more than 128 µg/mL; against E. faecalis (E. faecalis EFS002) it was 64 µg/mL. For the same sequence, the MIC is 8 µg/mL with A. calcoaceticus (A. calcoaceticus AC002), 4 µg/mL with S. aureus (S. aureus SA004), 128 µg/mL in the assay on S. maltophilia (S. maltophilia SMA002) and more than 128 µg/mL with P. aeruginosa (P. aeruginosa PA004).

Regarding ILKKWPWWPWRRKMILKKAGS [MBI 11D4CN], the MIC in the assay on E. coli (E. coli strain ECO003) was 64 µg/mL; against E. cloacae (E. cloacae strain ECL007), more than 64 µg/mL; against K. pneumoniae (K. pneumoniae strain KP002), more than 64 µg/mL; in the assay with E. faecium (E. faecium strain EFM002), 1 µg/mL; with S. marcescens (S. marcescens strain SMS004), more than 64 µg/mL; in the assay with E. faecalis (E. faecalis strain EFS002), 16 µg/mL. The MIC is more than 64 µg/mL with A. calcoaceticus (A. calcoaceticus strain AC001), 4 µg/mL against S. aureus (S. aureus strain SA009), more than 64 µg/mL in the assay with S. maltophilia (S. maltophilia strain SMA001) and more than 64 µg/mL with P. aeruginosa (P. aeruginosa strain PA004).

Consider ILKKWPWWWRK [MBI 11D15CN], for which the MIC worked out at 4 µg/mL against E. faecium (E. faecium strain EFM003), 32 µg/mL in the assay on E. faecalis (E. faecalis strain EFS002) and 8 µg/mL against S. aureus (S. aureus strain SA009).

Turning to ILKKWWWPWRK [MBI 11D14CN], the MIC in the assay on E. faecium (E. faecium strain EFM003) was found to be 1 µg/mL; against E. faecalis (E. faecalis strain EFS002) it was 32 µg/mL; in the assay on S. aureus (S. aureus strain SA009) it was 4 µg/mL.

As for ILKKYPWYPWRRK [MBI 11A5CN], the MIC is 128 µg/mL against E. coli (E. coli strain ECO003); more than 128 µg/mL with E. cloacae (E. cloacae strain ECL007); more than 128 µg/mL in the assay with K. pneumoniae (K. pneumoniae strain KP001); 4 µg/mL in the assay on E. faecium (E. faecium strain EFM003); more than 128 µg/mL with S. marcescens (S. marcescens strain SMS003); 32 µg/mL in the assay on E. faecalis (E. faecalis strain EFS002). Also, the MIC is more than 128 µg/mL with A. calcoaceticus (A. calcoaceticus strain AC001), 16 µg/mL against S. aureus (S. aureus strain SA002), more than 128 µg/mL in the assay with S. maltophilia (S. maltophilia strain SMA002) and more than 128 µg/mL in the assay with P. aeruginosa (P. aeruginosa strain PA003).

As for ILKWPWWPWRRK [MBI 11B3CN], the MIC in the assay with E. coli (E. coli strain ECO002) was 16 µg/mL; with E. cloacae (E. cloacae strain ECL007) it was more than 128 µg/mL; against K. pneumoniae (K. pneumoniae strain KP002), 64 µg/mL; against E. faecium (E. faecium strain EFM001), 8 µg/mL; against S. marcescens (S. marcescens strain SMS004), more than 128 µg/mL; in the assay with E. faecalis (E. faecalis strain EFS001) it was 16 µg/mL. For the same sequence, the minimal inhibitory concentration (MIC) in the assay with A. calcoaceticus (A. calcoaceticus strain AC001) was 64 µg/mL; against S. aureus (S. aureus strain SA010), 4 µg/mL; against S. maltophilia (S. maltophilia strain SMA002), 32 µg/mL; in the assay with P. aeruginosa (P. aeruginosa strain PA003), more than 128 µg/mL.

With ILRRWPWWPWRK [MBI 11B2CN], the MIC against E. coli (E. coli strain ECO003) was 16 µg/mL; against E. cloacae (E. cloacae strain ECL007) it was more than 128 µg/mL; against K. pneumoniae (K. pneumoniae strain KP002) it was 64 µg/mL; against E. faecium (E. faecium strain EFM001), 8 µg/mL; in the assay on S. marcescens (S. marcescens strain SMS004), more than 128 µg/mL; with E. faecalis (E. faecalis strain EFS004), 8 µg/mL. The MIC was 64 µg/mL in the assay with A. calcoaceticus (A. calcoaceticus strain AC001), 2 µg/mL against S. aureus (S. aureus strain SA005), 64 µg/mL in the assay with S. maltophilia (S. maltophilia strain SMA002) and more than 128 µg/mL with P. aeruginosa (P. aeruginosa strain PA003).

Turning to WRWWKPKWRWPKW [MBI 11J02CN], the MIC was 4 µg/mL with E. coli (E. coli ECO005); 64 µg/mL against E. cloacae (E. cloacae ECL007); 2 µg/mL in the assay on S. epidermidis; 4 µg/mL in the assay with K. pneumoniae (K. pneumoniae KP001); more than 128 µg/mL against S. marcescens (S. marcescens SMS003); 4 µg/mL against E. faecalis (E. faecalis EFS001). Moreover, the MIC is 16 µg/mL against E. faecalis (E. faecalis EFS008); 4 µg/mL with A. calcoaceticus (A. calcoaceticus AC002); 2 µg/mL with S. aureus (S. aureus SA014); 1 µg/mL in the assay with S. aureus (S. aureus SA093); 8 µg/mL in the assay on S. maltophilia (S. maltophilia SMA002); 32 µg/mL in the assay with P. aeruginosa (P. aeruginosa PA004). Further, the “Ceftriaxone MIC + Peptide” value is 8 µg/mL in [1] (A. baumannii ABI005); 4 µg/mL in assay [1] (A. lwoffii ALW007); 8 µg/mL in assay [1] (B. cepacia BC003); 0.25 µg/mL in assay [1] (E. cloacae ECL014); 1 µg/mL in [1] (E. cloacae ECL015); 8 µg/mL in the assay on bacterial isolates (A. baumannii ABI005). Further, the “Ceftriaxone MIC + Peptide” value was 4 µg/mL in the assay on bacterial isolates (B. cepacia BC003); 16 µg/mL in the assay on bacterial isolates (E. cloacae ECL014); 16 µg/mL with bacterial isolates (E. cloacae ECL015); 0.125 µg/mL in the assay on bacterial isolates (P. aeruginosa PA008); 16 µg/mL with bacterial isolates (P. aeruginosa PA039); 0.125 µg/mL with bacterial isolates (S. aureus SA025 MRSA). For the same sequence, the “Ceftriaxone MIC + Peptide” value with bacterial isolates (S. epidermidis SE012) and in the assay with bacterial isolates (S. epidermidis SE073) was 16 µg/mL throughout. In addition, the “Peptide MIC + Ceftriaxone” value in assay [1] (A. baumannii ABI005) stood at 0.5 µg/mL; in [1] (A. lwoffii ALW007) it was 2 µg/mL; in [1] (B. cepacia BC003) it was 32 µg/mL; in assay [1] (E. cloacae ECL014) it was 16 µg/mL; in [1] (E. cloacae ECL015), 16 µg/mL; in the assay with bacterial isolates (A. baumannii ABI005) it was 0.5 µg/mL. Besides, the “Peptide MIC + Ceftriaxone” value with bacterial isolates (B. cepacia BC003) amounted to 64 µg/mL; with bacterial isolates (E. cloacae ECL014), 8 µg/mL; with bacterial isolates (E. cloacae ECL015), 8 µg/mL; in the assay on bacterial isolates (P. aeruginosa PA008), 32 µg/mL; in the assay on bacterial isolates (P. aeruginosa PA039), 16 µg/mL; with bacterial isolates (S. aureus SA025 MRSA), 1 µg/mL. Besides, the entries for the “Peptide MIC + Ceftriaxone” value (in the assay on bacterial isolates (S. epidermidis SE012); in the assay with bacterial isolates (S. epidermidis SE073); in [2]) were 1 µg/mL, 1 µg/mL and 32 µg/mL, respectively. The “Peptide MIC Alone” value in assay [1] (A. baumannii ABI005) was 8 µg/mL; in [1] (A. lwoffii ALW007) it was 4 µg/mL; in [1] (B. cepacia BC003) it was more than 128 µg/mL; in assay [1] (E. cloacae ECL014) it was 32 µg/mL; in assay [1] (E. cloacae ECL015) it was 32 µg/mL; in the assay with bacterial isolates (A. baumannii ABI005), 8 µg/mL. Further, the “Peptide MIC Alone” value with bacterial isolates (B. cepacia BC003) is more than 128 µg/mL; with bacterial isolates (E. cloacae ECL014), 32 µg/mL; in the assay with bacterial isolates (E. cloacae ECL015), 32 µg/mL; in the assay on bacterial isolates (P. aeruginosa PA008), 64 µg/mL; with bacterial isolates (P. aeruginosa PA039), 64 µg/mL; in the assay with bacterial isolates (S. aureus SA025 MRSA), 2 µg/mL. Also, the “Peptide MIC Alone” value in the assay on bacterial isolates (S. epidermidis SE012) amounted to 4 µg/mL; in the assay on bacterial isolates (S. epidermidis SE073), 4 µg/mL; in [2] (Ceftriaxone section), 64 µg/mL. The FIC in assay [1] (A. baumannii ABI005) amounted to 0.56; in assay [1] (A. lwoffii ALW007) it was 0.75; in assay [1] (B. cepacia BC003), 0.63; in assay [1] (E. cloacae ECL014), 0.50; in [1] (E. cloacae ECL015), 0.52; in the assay on bacterial isolates (A. baumannii ABI005), 0.56. In addition, the FIC was 0.50 in the assay on bacterial isolates (B. cepacia BC003); 0.38 in the assay with bacterial isolates (E. cloacae ECL014); 0.50 in the assay on bacterial isolates (E. cloacae ECL015); 0.50 in the assay with bacterial isolates (P. aeruginosa PA008); 0.50 with bacterial isolates (P. aeruginosa PA039); 0.52 with bacterial isolates (S. aureus SA025 MRSA). Also, the values for the FIC with bacterial isolates (S. epidermidis SE012) and with bacterial isolates (S. epidermidis SE073) were 0.50 and 0.38, respectively.

Values taken from patent US20020035061A1, “COMPOSITIONS AND METHODS FOR TREATING INFECTIONS USING CATIONIC PEPTIDES ALONE OR IN COMBINATION WITH ANTIBIOTICS” (priority 1996, published 2002).
